“Also recorded” adds a separate entry of the source. Where two headings read alike, the source gives them in different places.
Key:
CYP Enzymes = conditions: moderate inducer of the CYP named in the cell; FDA list filtered for moderate CYP3A4 inducers; cenobamate classification based on 200 mg daily dose; cited from earlier work
CYP3A4 [1] = conditions: cited from earlier work
CYP3A4 [2] = conditions: classification of the drugs included in the PBPK study; cited from earlier work
[3] = Observed plasma concentrations of larotrectinib, single oral dose 100 mg alone and with itraconazole or rifampicin; type: in vivo, human; conditions: for Ratio AUC / Ratio Cmax: Observed, single oral dose 100 mg larotrectinib
CYP3A4 [4] = biological target: CYP3A4 (Homo sapiens, UniProt P08684); conditions: following oral administration; cited from earlier work
Sequence of CYP3A4 (Homo sapiens, UniProt P08684) (P08684 whole entry): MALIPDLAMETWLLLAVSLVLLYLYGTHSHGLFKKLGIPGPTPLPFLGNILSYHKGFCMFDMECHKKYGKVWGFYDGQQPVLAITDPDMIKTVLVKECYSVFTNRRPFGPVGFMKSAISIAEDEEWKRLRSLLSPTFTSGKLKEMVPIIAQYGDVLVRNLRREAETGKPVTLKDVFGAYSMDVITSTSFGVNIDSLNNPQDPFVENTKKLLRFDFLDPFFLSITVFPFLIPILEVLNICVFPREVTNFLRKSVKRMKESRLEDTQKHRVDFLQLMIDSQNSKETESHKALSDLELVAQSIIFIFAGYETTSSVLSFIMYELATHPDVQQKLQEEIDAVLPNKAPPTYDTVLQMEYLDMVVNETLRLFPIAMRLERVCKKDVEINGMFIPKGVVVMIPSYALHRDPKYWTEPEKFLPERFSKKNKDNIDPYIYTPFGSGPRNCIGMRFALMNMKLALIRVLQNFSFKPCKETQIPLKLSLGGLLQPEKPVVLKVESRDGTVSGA

Transporter Systems = conditions: substrate of the transporter named in the cell; FDA list; cited from earlier work
[5] = plus itraconazole (200 mg QD, 5th day of 7) / control, healthy subjects
[6] = plus rifampicin (600 mg QD, 10th day of 11) / control
[7] = coadministration of larotrectinib with rifampicin 600 mg QD

## NC(=O)O[C@@H](Cn1ncnn1)c1ccccc1Cl [cenobamate]
CYP Enzymes
  CYP Mod IND: CYP3A4

## CCC1(c2ccccc2)C(=O)NC(=O)NC1=O [phenobarbital]
CYP3A4 [1]; listed by FDA
  classification as CYP3A4 inducer: moderate inducer
CYP3A4 [1]; listed by a leading clinical support website (UpToDate)
  classification as CYP3A4 inducer: strong inducer

## O=C1Nc2ccc(Cl)cc2[C@@](C#CC2CC2)(C(F)(F)F)O1 [efavirenz]
CYP3A4 [2]
  CYP3A4 Effect: Moderate CYP3A4 induced

## O=C(Nc1cnn2ccc(N3CCC[C@@H]3c3cc(F)ccc3F)nc12)N1CC[C@H](O)C1 [larotrectinib]
[3]; [5]
  Ratio AUC: 4.31
  Ratio Cmax: 2.81
[3]; [6]
  Ratio AUC: 0.19
  Ratio Cmax: 0.29
[3]; [7]
  observed reduction in exposure, AUC: 81%
  observed reduction in exposure, Cmax: 71%
CYP3A4 [4]
  metabolism: metabolized by CYP3A4

## OC(Cn1cncn1)(Cn1cncn1)c1ccc(F)cc1F [Fluconazole]
CYP3A4 [2]
  CYP3A4 Effect: Moderate CYP3A4 inhibitor

## COc1ccccc1Oc1c(NS(=O)(=O)c2ccc(C(C)(C)C)cc2)nc(-c2ncccn2)nc1OCCO [bosentan]
Transporter Systems
  TRNSP SUB: OATP1B1;; also recorded: OATP1B3

## CCC(C)n1ncn(-c2ccc(N3CCN(c4ccc(OCC5COC(Cn6cncn6)(c6ccc(Cl)cc6Cl)O5)cc4)CC3)cc2)c1=O (centres unmarked) [Itraconazole]
CYP3A4 [2]
  CYP3A4 Effect: Strong CYP3A4 inhibitor

Reference: US20240207274A1, “Larotrectinib and moderate CYP3A4 inducer” (Bayer Consumer Care AG, priority 2022, published 2024)
